The text below walks through data of patent US20220145264A1, “CULTURE MEDIUM FOR MAMMALIAN EXPANDED POTENTIAL STEM CELLS, COMPOSITION, AND METHODS THEREOF” (THE UNIVERSITY OF HONG KONG, priority 2019, published 2022).

One assay relates to pEPSCs^Emb. Nature of the assay: Requirement of individual culture components for pEPSCs (RT-qPCR, AP+ colony formation). It is filed as cell-based, porcine. Here is the method: (§1) Porcine and human EPSC cultures were routinely maintained on STO feeders. STO feeder plates were prepared 3-4 days before passaging by thawing and plating the mitomycin C inactivated STO cells on 0.1% gelatinised plates at the density of ˜1.1×10^4 cells/cm^2. Porcine/human EPSC cells were maintained on STO feeder layers and enzymatically passaged every 3-5 days by a brief PBS wash followed by treatment for 3-5 minutes with 0.25% trypsin/EDTA (Gibco, Cat. No. 25500-054). The cells were dissociated and centrifuged (300 g×5 minutes) in M10 medium. M10: knockout DMEM (Gibco, Cat. No. 10829-018), 10% FBS (Gibco, Cat. No. 10270), 1× Glutamine Penicillin-Streptomycin (Thermo Fisher Scientific, Cat. No. 11140050) and 1×NEAA (Thermo Fisher Scientific, Cat. No. 10378-016). After removing supernatant, the porcine/human EPSCs were re-suspended and seeded in pEPSCM/hEPSCM supplemented with 5 μM ROCK inhibitor Y-27632 (Tocris, Cat. No. 1254). 5% FBS (Gibco, Cat. No. 10270) and 10% KnockOut Serum Replacement (KSR) (Gibco, Cat. No. 10828028) were added in pEPSCM and hEPSCM respectively to improve cells survive. 12-24 hours later, medium was switched to pEPSCM/hEPSCM only. Both pEPSCM and hEPSCM are N2B27 based media. N2B27 basal media (500 ml) was prepared by inclusion of the following components: 482.5 ml DMEM/F-12 (Gibco, Cat. No. 21331-020), 2.5 ml N2 supplement (Thermo Fisher Scientific, Cat. No. 17502048), 5 ml B27 supplement (Thermo Fisher Scientific, Cat. No. 17504044), 5 ml 1× Glutamine Penicillin-Streptomycin (Thermo Fisher Scientific, Cat. No. 11140-050), and 5 ml 1×NEAA (Thermo Fisher Scientific, Cat. No. 10378-016), 0.1 mM 2-mercaptoethanol (Sigma, Cat. No. M6250). pEPSCM (500 ml) was generated by adding the following small molecules and cytokines into 500 ml N2B27 basal media: 0.2 μM CHIR99021(GSK3i, TOCRIS, Cat. No. 4423), 1 μM WH-4-023 (SRC inhibitor, TOCRIS, Cat. No. 5413), 2.5 μM XAV939 (Sigma, Cat. No. X3004) or 2.5 μM IWR-1 (TOCRIS, Cat. No. 3532), […] Vitamin C (Sigma, Cat. No. 49752-100G), 10 ng/ml LIF (Stem Cell Institute, University of Cambridge. SCI) and 20 ng/ml ACTIVIN (SCI). hEPSCM (500 ml) was generated by adding the following components into 500 ml N2B27 basal media: 1.0 μM CHIR99021(GSK3 inhibitor, TOCRIS, Cat. No. 4423), 0.5 μM A-419259 (SRC inhibitor, TOCRIS, Cat. No. 3914), 2.5 μM XAV939 (Sigma, Cat. No. X3004), […] Vitamin C (Sigma, Cat. No. 49752-100G), 10 ng/ml LIF (SCI). Although both targeting SRC family kinases (SFKs), WH-4-023 and A419259 were preferred for porcine and human EPSCs, respectively. […] The concentrations of CHIR99021 for porcine and human EPSC cultures are 0.2 μM and 1.0 μM, respectively. […] 0.25 μM SB 590885 (BRAF inhibitor, R&D, Cat. No. 2650) and 2.0 μM SP600125 ([…], TOCRIS, Cat. No. 1496) were included to improve porcine and human EPSC cultures, but they were not essential for the routine maintenance of porcine and human EPSCs. All cell cultures in this paper were performed under conditions of 37° C. and 5% CO2 unless stated otherwise.
(§2) Total RNA was isolated using an RNeasy Mini Kit (Qiagen, Cat. No. 74106) for cultured cells or RNeasy Micro Kit (Qiagen, Cat. No. 74034) for sorted NANOS3-mCherry^+ cells. RNA was subsequently quantified and treated with gDNA WipeOut to remove genomic DNA. Complementary DNA (cDNA) was prepared using a QuantiTect Reverse Transcription Kit (Qiagen, Cat. No. 205311). RT-qPCR primers or TaqMan Gene Expression Assays (Life Technologies) are listed in Supplementary Table 10 and 11. ABsolute Blue qPCR ROX Mix (ABgene, Cat. No. AB4138B) were used for probe based qPCR assays and SYBR Green ROX qPCR Mastermix (Qiagen, Cat. No. 330523) were used for primer based qPCR assays. All qPCR reactions were performed on ABI 7900 HT Sequence Detection System (Life Technologies). Information on all primers and probes used for qPCR analysis are provided in Supplementary Table 10 and 11. Gene expression was determined relative to GAPDH using the […]. […]

The subject of assay [1] is NANOS3-Tdtomato reporter EPSCs. The experiment in a line: Differentiation to PGCLCs from NANOS3-Tdtomato reporter EPSCs (FACS). Conditions: 5.0 ng/ml supplemented in hEPSCM. It is filed as cell-based, human. Here is the method:
For human PGCLCs, the PGC differentiation potential of two hEPSC lines are tested with the sequential induction method. Human pre-mesoderm (pre-ME) was first induced in pre-ME media (Advanced RPMI 1640 Medium, 1% B27 supplement, 1×NEAA and 1× glutamine penicillin-streptomycin supplemented with 100 ng/ml Activin A (SCI), 3 μM CHIR99021 and 10 μM of ROCKi Y-27632) for 12 hours. Pre-ME were trypsinized into single cells and seeded into Corning Costar Ultra-Low attachment multi well 96-well plates (Corning, Cat. No. 7007) 4,000-5,000 cells per well in the […] PGCLC medium which was used for porcine PGCLC induction. To improve the cell aggregation, in all PGCLC induction experiments, 0.25% (v/v) poly-vinyl alcohol (Sigma, Cat. No. 341584) are added in the basal medium.

In a further assay the test system is H1-EPSCs. Nature of the assay: Requirement of individual culture components for hEPSCs (RT-qPCR, AP+ colony formation). Conditions: in the presence of 5.0 ng/ml. It is filed as cell-based, human. Here is the method: as §1, §2
Background: Quantitative PCR measures a nucleic acid by following its amplification.

As to `O=C(NOC[C@H](O)CO)c1ccc(F)c(F)c1Nc1ccc(I)cc1F` [PD0325901], the “pEPSC survival as measured by colony formation in serial passaging” value with pEPSCs^Emb (0.1 μM added to pEPSCM) was “decreased pEPSC survival”.
Regarding “ACTIVIN A: Human Recombinant ACTIVIN A cytokine”, the “NANOS3-tdTomato+ PGCLCs generated” value in assay [1] was “more and substantially increased”. In addition, in the assay on pEPSCs^Emb (removing ACTIVIN A from pEPSCM), the “cell survival and pluripotency factor expression” value was “massive cell loss and down-regulation of pluripotency factors”. In the assay with H1-EPSCs, the “cell survival at passaging” value was “substantially improved”.
